Where a SMILES comes first, the peptide text is derived from it. [ ]: non-standard residue; d: D form. Hyp = O=C(O)[CH]1C[CH](O)CN1
Assays:
[1] = tested on: operation pain during laser surgery; experiment: Liquid spray to relieve operational pain during laser surgery; type: in vivo, human
Description: The enrolled subject was required to use 1 mL of a liquid spray comprising the same formulation as that described in Example 14 above in a water spray bottle on half of their face before and after a lattice laser operation to remove of facial melanin.

[2] = tested on: TNF-α, IL-6 and IL-1B in exudate; experiment: Air pouch model, ELISA of exudate; type: in vivo, C57BL/6 mice; settings: 300 μg/mouse into air pouch; FIG. 1
Description: Healthy adult male C57BL/6 mice weighing between 20 and 30 g were supplied by Nanjing Biomedicial Research Institute of Nanjing University (NBRI). Prior to any experiments being conducted, mice were housed under standardized conditions (at a constant temperature of 22±2° C., with alternating 12 hour periods of light and darkness), and were fed on a standard mouse diet with water, for about a week.
General anesthesia was induced using intraperitoneal 3% chloral hydrate (Sinopharm Chemical Reagent Co., Ltd., Shanghai, China; 1 mL/10 g of body weight). The hair of the entire dorsum was shaved and depilated 1 day before sterile air injection.
Air pouches were produced by subcutaneous injection of sterile air (5 mL) into the intrascapular area of the mice. After three days, another injection of air (3 mL) was performed to maintain the pouches. […]
Exudates were collected and volumes were quantified. The exudates were centrifuged at 3000 rpm for 10 minutes at 4° C., and the supernatants were collected and stored at −20° C. for ELISA analysis using standard ELISA test kits from Beijing 4A Biotech Co., Ltd. (Beijing) and an ELISA reader (SH-1000 Hitachi, Japan) for […] (TNF-α), interleukin 1 beta (IL-1B), interleukin 6 (IL-6). […]

common cold = experiment: Liquid spray to treat common cold; type: in vivo, human
Description: Compound B was dissolved in Injection water (WFI; from a TC-RO-0.25 T/h-2 water treatment system, Yangzhou Tiancheng Water Treatment Devices & Engineering Co., Ltd., Yangzhou, China). The concentration was 0.5 mg/mL. 5 mL was loaded into a plastic water spray bottle.
The enrolled subject in the study was inflicted with a common cold for 2 days prior to treatment. Other cold treatments were not used before treatment. The subject, who presented a cough, a sore throat and a loss of voice, was required to use the liquid spray (3 to 5 presses each time, in the morning and evening.

## CC(N)C(=O)NC(CCCCN)C(=O)N1CCCC1C(=O)NC(CO)C(=O)NC(Cc1ccc(O)cc1)C(=O)N1CC(O)CC1C(=O)N1CC(O)CC1C(=O)NC(C(=O)NC(Cc1ccc(O)cc1)C(=O)NC(CCCCN)C(=O)O)C(C)O (stereo not drawn) [Compound B, Ala-Lys-Pro-Ser-Tyr-Hyp-Hyp-Thr-Tyr-Lys] (H-AKPSY[Hyp][Hyp]TYK-OH; configuration not given here)
[1]; 1 mL liquid spray 0.5 mg/mL on half of face before and after operation
  pain during lattice laser operation: did not feel pain during the operation
[1]; sprayed half of face, unsprayed half: pain lasted about 2 hours
  pain after lattice laser operation: felt no pain after the operation
[2]
  ELISA test results of the exudate for TNF-α, IL-6 and IL-1B: very strong anti-inflammatory effects
Common cold; liquid spray 0.5 mg/mL in WFI, 3 to 5 presses morning and evening, after the first use
  throat pain: throat pain was relieved after the first use
Common cold; liquid spray 0.5 mg/mL, after the second use
  throat pain and voice: throat was no longer painful and could speak

From patent US20250041377A1, “PHARMACEUTICAL USE” (ENLITISA (SHANGHAI) PHARMACEUTICAL CO., LTD., priority 2018, published 2025)
